Measurements taken from article PMC11391413 (Chemical Science, 2024).
No end group written: not given here.

biological target: NSH3 domain of full-length GRB2 (Homo sapiens, UniProt P62993); test: NMR titration (1H-15N HSQC chemical shift perturbation) of 15N-labelled full-length GRB2 with SOS1 PRMs, KD1; details: read-out: K D (μM) from full-length GRB2, K D1 (NSH3), global fit of residues with maximum CSPs over 0.03 ppm, independent two-site binding model, GRB2 approx. 200 to 270 μM, 20 mM sodium phosphate, 25 °C, bootstrap 1000 iterations
Sequence (P62993 whole entry, the tested form may be a part): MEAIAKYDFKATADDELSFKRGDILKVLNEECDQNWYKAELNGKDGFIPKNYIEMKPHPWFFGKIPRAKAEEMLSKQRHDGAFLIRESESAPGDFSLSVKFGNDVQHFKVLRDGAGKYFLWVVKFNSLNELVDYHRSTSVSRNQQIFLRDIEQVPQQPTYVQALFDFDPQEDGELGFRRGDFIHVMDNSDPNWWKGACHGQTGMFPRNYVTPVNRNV
Description: Models with two binding sites basically require a total of four dissociation constants (KD1–KD4). The two-site independent binding model equates KD3 and KD4 with KD2 and KD1, respectively. In contrast, the two-site cooperative binding model (two-site dependent model) differentiates the four dissociation constants, with the assumption that KD3 is modulated by another ligand binding to KD2, as a function of KD2 and a modulation factor α. KD4 is then calculated from KD1 and KD2, as shown in the equation provided in the figure (the detailed models and theory are described in Materials and methods). […] The calculations were performed using only residues showing the maximum CSPs over 0.03 ppm.
2D ^1H–^15N HSQC spectra were measured at each titration point. Chemical shift differences, Δ, were analysed by Δ = ((ΔH)^2 + (ΔN/5)^2)^1/2, where ΔH and ΔN are the differences in ppm for the backbone amide ^1H and ^15N chemical shifts between the two conditions. 1 ppm corresponds to 600.13 Hz for ^1H and 60.81 Hz for ^15N.
The dissociation constants for each residue were calculated by non-linear regression analysis with the equation for the single state model:[33] […]
In all models, the non-linear least-squares fitting was performed by the Levenberg–Marquardt algorithm. The precision of the model parameters was assessed by conducting the bootstrap resampling on the residuals of the regression model. […]

Compound | Kd
CC(C)C[C@H](NC(=O)[C@H](CCCCN)NC(=O)[C@@H]1CCCN1)C(=O)N1CCC[C@H]1C(=O)N1CCC[C@H]1C(=O)N[C@@H](CCCCN)C(=O)N[C@H](C(=O)N[C@@H](Cc1ccc(O)cc1)C(=O)N[C@@H](CCCCN)C(=O)N[C@@H](CCCNC(=N)N)C(=O)N[C@@H](CCC(=O)O)C(=O)N[C@@H](Cc1c[nH]cn1)C(=O)O)[C@@H](C)O [S10] | 483 ± 45.7 µM

biological target: T1, full-length GRB2, KD1 (NSH3) (Homo sapiens, UniProt P62993); test: ITC of full-length GRB2 with SOS1 PRMs, KD1; assay type: binding; details: not given
T1 construct: further corroborated by our ITC analysis of the full-length GRB2; His6 (N, cleaved yes); TEV protease cleavage site (N, cleaved yes); made in house; host or cells: Escherichia coli BL21 (DE3) pLysS
T1 sequence (P62993 whole entry): as the sequence (P62993 whole entry, the tested form may be a part) above

Compound | Kd
CC(C)C[C@H](NC(=O)[C@H](CCCCN)NC(=O)[C@@H]1CCCN1)C(=O)N1CCC[C@H]1C(=O)N1CCC[C@H]1C(=O)N[C@@H](CCCCN)C(=O)N[C@H](C(=O)N[C@@H](Cc1ccc(O)cc1)C(=O)N[C@@H](CCCCN)C(=O)N[C@@H](CCCNC(=N)N)C(=O)N[C@@H](CCC(=O)O)C(=O)N[C@@H](Cc1c[nH]cn1)C(=O)O)[C@@H](C)O [S10] | 71.5 ± 24.2 µM
DSPPAIPPRQPT [S5] | 15.9 ± 1.5 µM
ESPPLLPPREPV [S6] | 40.1 ± 6.5 µM
IAGPPVPPRQST [S9] | 35.6 ± 4.2 µM
PKPLPRFPKK [S2] | 65.1 ± 23.7 µM
PSPHGTRRHLPSPP [S8] | 123 ± 18.6 µM
